US9115012B2, “Method of improving the water quality in aquatic ecosystems” (Kemin Industries, Inc., priority 2010, dated 2015)

System: Vibrio spp. isolated from shrimp pond water
Test: Disk diffusion on Vibrio isolation agar (zone of inhibition)
Type: cell-based
Details: 10 μl on disk, extract of 20 g powder in 100 ml water, chloramphenicol 25 μg/ml, 37° C.
Protocol: In another experiment, the effect of the nut gall extract on the growth of Vibrio spp. isolated from shrimp pond water was tested. The extract was prepared by adding 20 g of nut gall powder into 100 ml of water, soaking for one hour followed by centrifugation. Chloramphenicol (25 μg/ml) was taken as positive control. Vibrio isolation agar was prepared and the agar plates were cooled to room temperature. Sterile disk was placed in the centre of agar plate, after inoculating Vibrio spp. using a sterile cotton swab. 10 μl of extract/antibiotic was added to the disk and incubated at 37° C. in an incubator.

O=C(N[C@H](CO)[C@H](O)c1ccc([N+](=O)[O-])cc1)C(Cl)Cl [Chloramphenicol]
zone of inhibition at 25 µg/mL: 13 mm
